Laboratory results taken from patent US6444616B1, “Substituted p-trifluoromethylphenyluracils” (Bayer Aktiengesellschaft, priority 1999, dated 2002).

How the values were obtained:
[1] = tested on: Sinapis; assay: Pre-emergence test; type: in vivo; conditions: rated after 3 weeks, application rate not stated
Description: (§1) Solvent: 5 parts by weight of acetone
(§2) Emulsifier: 1 part by weight of alkylaryl polyglycol ether
(§3) To produce a suitable preparation of active compound, 1 part by weight of active compound is mixed with the stated amount of solvent, the stated amount of emulsifier is added and the concentrate is diluted with water to the desired concentration.
(§4) Seeds of the test plants are sown in normal soil. After about 24 hours, the soil is sprayed with the preparation of active compound in such a way as to apply the particular amounts of active compound desired per unit area. The concentration of the spray liquor is chosen so that the particular amounts of active compound desired are applied in 1000 l of water/ha.
(§5) After 3 weeks, the degree of damage to plants is rated in % damage in comparison to the development of the untreated control.
(§6) 0%=no effect (like untreated control)

[2] = tested on: Cyperus; assay: Pre-emergence test; type: in vivo; conditions: rated after 3 weeks, application rate not stated, 0%=no effect, 100%=total destruction
Description: as §1, §2, §3, §4, §5, §6

[3] = tested on: datura; assay: Postemergence test; type: in vivo; conditions: plants 5-15 cm sprayed, rated after 3 weeks, application rate not stated
Description: as §1, §2
(§7) To produce an effective preparation of active compound, 1 part by weight of active compound is mixed with the stated amount of solvent, the stated amount of emulsifier is added and the concentrate is diluted with water to the desired concentration.
as §4, with “Test plants which have a height” for “Seeds”, “5-15 cm” for “the test plants”, “are” for “are sown in normal soil. After about 24 hours, the soil is”
(§8) After 3 weeks, the degree of damage to the plants is rated in % damage in comparison to the development of the untreated control.
as §6

[4] = tested on: Sinapis; assay: Postemergence test; type: in vivo; conditions: plants 5-15 cm sprayed, rated after 3 weeks, application rate not stated
Description: as §1, §2, §7
as §4, with “Test plants which have a height” for “Seeds”, “5-15 cm” for “the test plants”, “are” for “are sown in normal soil. After about 24 hours, the soil is”
as §8, §6

[5] = tested on: Ipomoea; assay: Postemergence test; type: in vivo; conditions: plants 5-15 cm sprayed, rated after 3 weeks, application rate not stated
Description: as §1, §2, §7
as §4, with “Test plants which have a height” for “Seeds”, “5-15 cm” for “the test plants”, “are” for “are sown in normal soil. After about 24 hours, the soil is”
as §8, §6

[6] = tested on: Solanum; assay: Postemergence test; type: in vivo; conditions: plants 5-15 cm sprayed, rated after 3 weeks, application rate not stated
Description: as §1, §2, §7
as §4, with “Test plants which have a height” for “Seeds”, “5-15 cm” for “the test plants”, “are” for “are sown in normal soil. After about 24 hours, the soil is”
as §8, §6

[7] = tested on: Abutilon; assay: Postemergence test; type: in vivo; conditions: plants 5-15 cm sprayed, rated after 3 weeks, application rate not stated
Description: as §1, §2, §7
as §4, with “Test plants which have a height” for “Seeds”, “5-15 cm” for “the test plants”, “are” for “are sown in normal soil. After about 24 hours, the soil is”
as §8, §6

[8] = tested on: polygonum; assay: Postemergence test; type: in vivo; conditions: plants 5-15 cm sprayed, rated after 3 weeks, application rate not stated
Description: as §1, §2, §7
as §4, with “Test plants which have a height” for “Seeds”, “5-15 cm” for “the test plants”, “are” for “are sown in normal soil. After about 24 hours, the soil is”
as §8, §6

[9] = tested on: Matricaria; assay: Postemergence test; type: in vivo; conditions: plants 5-15 cm sprayed, rated after 3 weeks, application rate not stated
Description: as §1, §2, §7
as §4, with “Test plants which have a height” for “Seeds”, “5-15 cm” for “the test plants”, “are” for “are sown in normal soil. After about 24 hours, the soil is”
as §8, §6

Structure (SMILES) | melting point [°C] | degree of damage to plants, % damage vs untreated control [1] [%] | degree of damage to plants, % damage vs untreated control [2] [%] | degree of damage to the plants, % damage vs untreated control [3] [%] | degree of damage to the plants, % damage vs untreated control [4] [%] | degree of damage to the plants, % damage vs untreated control [5] [%] | degree of damage to the plants, % damage vs untreated control [6] [%] | degree of damage to the plants, % damage vs untreated control [7] [%] | degree of damage to the plants, % damage vs untreated control [8] [%] | degree of damage to the plants, % damage vs untreated control [9] [%]
O=c1cc(C(F)(F)F)[nH]c(=O)n1-c1cc(F)c(C(F)(F)F)cc1F [Example 1, 1-(2,5-difluoro4-trifluoromethyl-phenyl)-3,6-dihydro-2,6-dioxo-4-trifluoromethyl-1(2H)-pyrimidine] | 217 | – | – | – | – | – | – | – | – | –
Cn1c(C(F)(F)F)cc(=O)n(-c2cc(F)c(C(F)(F)F)cc2F)c1=O [Example 2, 1-(2,5-difluoro-4-trifluoromethyl-phenyl)-3,6-dihydro-2,6-dioxo-3-methyl-4-trifluoromethyl-1 (2H)-pyrimidine] | 110 | 100 | 80 | 100 | 100 | 100 | 100 | 100 | 95 | 100
Nn1c(C(F)(F)F)cc(=O)n(-c2cc(F)c(C(F)(F)F)cc2F)c1=O [Example 3, 3-amino-1-(2,5-difluoro-4-trifluoromethyl-phenyl)-3,6-dihydro-2,6-dioxo-4-trifluoromethyl-1 (2H)-pyrimidine] | 157 | – | – | – | – | – | – | – | – | –

More lines, main results first:

melting point [°C] | Structure (SMILES) | degree of damage to plants, % damage vs untreated control [1] [%] | degree of damage to plants, % damage vs untreated control [2] [%] | degree of damage to the plants, % damage vs untreated control [3] [%] | degree of damage to the plants, % damage vs untreated control [4] [%] | degree of damage to the plants, % damage vs untreated control [5] [%] | degree of damage to the plants, % damage vs untreated control [6] [%] | degree of damage to the plants, % damage vs untreated control [7] [%] | degree of damage to the plants, % damage vs untreated control [8] [%] | degree of damage to the plants, % damage vs untreated control [9] [%]
227 | CS(=O)(=O)Nc1cc(-n2c(=O)cc(C(F)(F)F)[nH]c2=O)c(F)cc1C(F)(F)F [Example 4] | 100 | 80 | 100 | 100 | 100 | 100 | 100 | 95 | 100
163 | Cn1c(C(F)(F)F)cc(=O)n(-c2cc(NS(C)(=O)=O)c(C(F)(F)F)cc2F)c1=O [Example 5] | 100 | 80 | 100 | 100 | 100 | 100 | 100 | 95 | 100
